Patent US9193719B2, “1,2,4-triazol-5-ones and analogs exhibiting anti-cancer and anti-proliferative activities” (Deciphera Pharmaceuticals, LLC, priority 2013, dated 2015)
pIC50: −log10 of the molar value.

How the values were obtained:
[1] = target: T1, unphosphorylated c-KIT kinase (uKIT, Seq. ID no. 2) (Homo sapiens, UniProt P10721); assay: uKit kinase enzymatic assay (pyruvate kinase/lactate dehydrogenase coupled); assay type: biochemical; details: ATP 2000 μM, rate 3 to 4 h
T1 construct: uKit with N-terminal GST fusion used for screening
T1 sequence (P10721 with tags, fused parts or gaps): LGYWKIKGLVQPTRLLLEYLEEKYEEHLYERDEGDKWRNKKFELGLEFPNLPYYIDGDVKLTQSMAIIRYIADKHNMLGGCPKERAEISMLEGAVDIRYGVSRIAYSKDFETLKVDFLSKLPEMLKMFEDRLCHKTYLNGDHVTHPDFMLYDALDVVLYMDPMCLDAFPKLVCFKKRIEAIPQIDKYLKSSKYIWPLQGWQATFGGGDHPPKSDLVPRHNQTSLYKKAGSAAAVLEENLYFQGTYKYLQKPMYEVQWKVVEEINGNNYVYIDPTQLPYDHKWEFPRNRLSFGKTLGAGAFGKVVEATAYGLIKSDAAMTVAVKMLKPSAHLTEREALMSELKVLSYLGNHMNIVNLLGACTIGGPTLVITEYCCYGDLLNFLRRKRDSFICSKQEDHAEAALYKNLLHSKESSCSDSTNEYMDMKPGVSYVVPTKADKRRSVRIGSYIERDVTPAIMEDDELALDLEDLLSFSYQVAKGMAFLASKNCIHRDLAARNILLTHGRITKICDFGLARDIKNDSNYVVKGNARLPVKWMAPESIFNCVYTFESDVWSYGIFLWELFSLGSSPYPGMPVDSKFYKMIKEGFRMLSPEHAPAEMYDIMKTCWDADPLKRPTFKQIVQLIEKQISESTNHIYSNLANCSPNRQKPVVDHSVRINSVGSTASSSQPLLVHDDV
Description: uKit Kinase (Seq. ID No. 2) Assay
Activity of unphosphorylated c-KIT kinase (uKIT, Seq. ID no. 2) was determined by following the production of ADP from the KIT kinase reaction with ATP and poly E4Y as substrates through coupling with the pyruvate kinase/lactate dehydrogenase system (e.g., Schindler et al. Science (2000) 289: 1938-1942). In this assay, the oxidation of NADH (thus the decrease at A340 nm) was continuously monitored spectrophometrically. The reaction mixture (100 μl) contained unphosphorylated KIT (12 nM), polyE4Y (1 mg/mL), MgCl2 (10 mM), pyruvate kinase (4 units), lactate dehydrogenase (0.7 units), phosphoenol pyruvate (1 mM), and NADH (0.28 mM) and ATP (2000 μM) in 90 mM Tris buffer containing 0.2% octyl-glucoside and 1% DMSO, pH 7.5. The inhibition reaction was started by mixing serial diluted test compound with the above reaction mixture. The absorption at 340 nm was monitored continuously for 4 hours at 30° C. on Synergy 2 plate reader (BioTech). Reaction rates around 3 to 4 h time frame were used to calculate % inhibitions, from which IC50 values were generated.

[2] = test system: phospho-FMS in THP-1 cells; assay: Phospho-FMS ELISA assay in THP-1 cells; assay type: cell-based; details: Homo sapiens, 4 h compound, M-CSF stimulation 5 min, read-out: pFMS inhibition in THP-1 cells
Description: THP-1 cells (catalog #TIB-202) were obtained from the ATCC. Briefly, cells were grown in RPMI 1640 supplemented with 10% characterized fetal bovine serum, 1% sodium pyruvate, 1% Penicillin-Streptomycin-Glutamine (PSG) and 55 uM 2-mercaptoethanol (Invitrogen, Carlsbad, Calif.) at 37 degrees Celsius, 5% CO2, 95% humidity. Cells were allowed to expand until reaching 70-95% confluency at which point they were subcultured or harvested for assay use.
A serial dilution of test compound was diluted 1:100 in assay medium (RPMI 1640 supplemented with 10% characterized fetal bovine serum) in a 96 well black clear bottom plate (Corning, Corning, N.Y.). In a separate 96 well black clear bottom plate, one hundred and fifty thousand THP-1 cells were added per well in 100 μL in assay medium. Fifty microliters of diluted compound was then added to the cells. Plates were incubated for 4 hours at 37 degrees Celsius, 5% CO2, 95% humidity. At the end of the incubation period, cells were stimulated with 50 μL of a 100 nM solution of recombinant human M-CSF (catalog #216-MC, R & D Systems, Minneapolis, Minn.) in assay medium and the plate was incubated for 5 minutes at 37 degrees Celsius, 5% CO2, 95% humidity. Lysates were prepared and used to perform the phospho-FMS ELISA as described by the manufacturer (catalog #DYC3268, R & D Systems, Minneapolis, Minn.). GraphPad Prism was used to calculate IC50 values obtained from data generated from the ELISA assay.

Structure (SMILES) | pIC50 [1] | pIC50 [2]
Cc1nc(-n2nc(C(C)(C)C)[nH]c2=O)ccc1Oc1ccnc(NC(=O)N(C)C)c1 [Example 30, 3-(4-((6-(3-(tert-butyl)-5-oxo-4,5-dihydro-1H-1,2,4-triazol-1-yl)-2-methylpyridin-3-yl)oxy)pyridin-2-yl)-1,1-dimethylurea] | < 6.00 | 6.00 to 7.00
Cc1nc(-n2nc(C3CCCCC3)[nH]c2=O)ccc1Oc1ccnc(-c2cnn(C)c2)c1 [Example 6, 3-cyclohexyl-1-(6-methyl-5-((2-(1-methyl-1H-pyrazol-4-yl)pyridin-4-yl)oxy)pyridin-2-yl)-1H-1,2,4-triazol-5(4H)-one] | 7.00 to 8.00 | ≥ 8.00
Cc1nc(-n2nc(Cc3ccccc3)[nH]c2=O)ccc1Oc1ccnc(-c2cnn(C)c2)c1 [Example 2, 3-benzyl-1-(6-methyl-5-((2-(1-methyl-1H-pyrazol-4-yl)pyridin-4-yl)oxy)pyridin-2-yl)-1H-1,2,4-triazol-5(4H)-one] | 6.00 to 7.00 | ≥ 8.00
Cn1cc(-c2cc(Oc3ccc(-n4nc(Cc5ccc(F)cc5)[nH]c4=O)nc3)ccn2)cn1 [Example 3, 3-(4-fluorobenzyl)-1-(5-((2-(1-methyl-1H-pyrazol-4-yl)pyridin-4-yl)oxy)pyridin-2-yl)-1H-1,2,4-triazol-5(4H)-one] | 7.00 to 8.00 | 7.00 to 8.00
Cn1cc(-c2cc(Oc3ccc(-n4nc(C(C)(C)C)[nH]c4=O)nc3)ccn2)cn1 [Example 4, 3-(tert-butyl)-1-(5-((2-(1-methyl-1H-pyrazol-4-yl)pyridin-4-yl)oxy)pyridin-2-yl)-1H-1,2,4-triazol-5(4H)-one] | 7.00 to 8.00 | 7.00 to 8.00
Cc1nc(-n2nc(Cc3ccc(F)cc3)[nH]c2=O)ccc1Oc1ccnc(-c2cnn(C)c2)c1 [Example 1, 3-(4-fluorobenzyl)-1-(6-methyl-5-((2-(1-methyl-1H-pyrazol-4-yl)pyridin-4-yl)oxy)pyridin-2-yl)-1H-1,2,4-triazol-5(4H)-one] | 6.00 to 7.00 | 7.00 to 8.00
Cc1cc(-n2nc(C(C)(C)C)[nH]c2=O)ncc1Oc1ccnc(-c2cnn(C)c2)c1 [Example 31, 3-(tert-butyl)-1-(4-methyl-5-((2-(1-methyl-1H-pyrazol-4-yl)pyridin-4-yl)oxy)pyridin-2-yl)-1H-1,2,4-triazol-5(4H)-one] | 7.00 to 8.00 | 7.00 to 8.00
Cc1nc(-n2nc(C3(C(F)(F)F)CCC3)[nH]c2=O)ccc1Oc1ccnc(-c2cnn(C)c2)c1 [Example 43, 1-(6-methyl-5-((2-(1-methyl-1H-pyrazol-4-yl)pyridin-4-yl)oxy)pyridin-2-yl)-3-(1-(trifluoromethyl)cyclobutyl)-1H-1,2,4-triazol-5(4H)-one] | 7.00 to 8.00 | 6.00 to 7.00
Cc1ccc(-c2cc(Oc3ccc(-n4nc(C(C)(C)C)[nH]c4=O)nc3C)ccn2)cn1 [Example 10, 3-(tert-butyl)-1-(6-methyl-5-((6′-methyl-[2,3′-bipyridin]-4-yl)oxy)pyridin-2-yl)-1H-1,2,4-triazol-5(4H)-one] | < 6.00 | 7.00 to 8.00
Cc1nc(-n2nc(C3CCOCC3)[nH]c2=O)ccc1Oc1ccnc(-c2cnn(C)c2)c1 [Example 20, 1-(6-methyl-5-((2-(1-methyl-1H-pyrazol-4-yl)pyridin-4-yl)oxy)pyridin-2-yl)-3-(tetrahydro-2H-pyran-4-yl)-1H-1,2,4-triazol-5(4H)-one] | 6.00 to 7.00 | 6.00 to 7.00
Cc1nc(-n2nc(C(C)(C)C)[nH]c2=O)ccc1Oc1cc(-c2cnn(C)c2)ncn1 [Example 47, 3-(tert-butyl)-1-(6-methyl-5-((6-(1-methyl-1H-pyrazol-4-yl)pyrimidin-4-yl)oxy)pyridin-2-yl)-1H-1,2,4-triazol-5(4H)-one] | < 6.00 | 7.00 to 8.00
Cc1nc(-n2nc(C(C)(C)C)[nH]c2=O)ccc1Oc1ccnc(-c2ccc(C3CCN(C)CC3)cc2)c1 [Example 14, 3-(tert-butyl)-1-(6-methyl-5-((2-(4-(1-methylpiperidin-4-yl)phenyl)pyridin-4-yl)oxy)pyridin-2-yl)-1H-1,2,4-triazol-5(4H)-one] | 7.00 to 8.00 | 7.00 to 8.00
Cc1cc(-c2cc(Oc3ccc(-n4nc(C(C)(C)C)[nH]c4=O)nc3C)ccn2)ccn1 [Example 9, 3-(tert-butyl)-1-(6-methyl-5-((2′-methyl-[2,4′-bipyridin]-4-yl)oxy)pyridin-2-yl)-1H-1,2,4-triazol-5(4H)-one] | 6.00 to 7.00 | 7.00 to 8.00

Further lines, results first:

pIC50 [1] | pIC50 [2] | Structure (SMILES)
7.00 to 8.00 | 7.00 to 8.00 | CCC(C)(C)c1nn(-c2ccc(Oc3ccnc(-c4cnn(C)c4)c3)c(C)n2)c(=O)[nH]1 [Example 25, 1-(6-methyl-5-((2-(1-methyl-1H-pyrazol-4-yl)pyridin-4-yl)oxy)pyridin-2-yl)-3-(tert-pentyl)-1H-1,2,4-triazol-5(4H)-one]
6.00 to 7.00 | 7.00 to 8.00 | Cc1nc(-n2nc(C(C)C)[nH]c2=O)ccc1Oc1ccnc(-c2cnn(C)c2)c1 [Example 5, 3-isopropyl-1-(6-methyl-5-((2-(1-methyl-1H-pyrazol-4-yl)pyridin-4-yl)oxy)pyridin-2-yl)-1H-1,2,4-triazol-5(4H)-one]
6.00 to 7.00 | 7.00 to 8.00 | Cc1cc(-n2nc(C(C)(C)C)[nH]c2=O)nc(C)c1Oc1ccnc(-c2cnn(C)c2)c1 [Example 33, 3-(tert-butyl)-1-(4,6-dimethyl-5-((2-(1-methyl-1H-pyrazol-4-yl)pyridin-4-yl)oxy)pyridin-2-yl)-1H-1,2,4-triazol-5(4H)-one]
6.00 to 7.00 | 7.00 to 8.00 | Cc1nc(-n2nc(C3(C)CC3)[nH]c2=O)ccc1Oc1ccnc(-c2cnn(C)c2)c1 [Example 27, 1-(6-methyl-5-((2-(1-methyl-1H-pyrazol-4-yl)pyridin-4-yl)oxy)pyridin-2-yl)-3-(1-methylcyclopropyl)-1H-1,2,4-triazol-5(4H)-one]
6.00 to 7.00 | ≥ 8.00 | Cc1nc(-n2nc(C3CCC3)[nH]c2=O)ccc1Oc1ccnc(-c2cnn(C)c2)c1 [Example 37, 3-cyclobutyl-1-(6-methyl-5-((2-(1-methyl-1H-pyrazol-4-yl)pyridin-4-yl)oxy)pyridin-2-yl)-1H-1,2,4-triazol-5(4H)-one]
6.00 to 7.00 | 6.00 to 7.00 | COCC(C)(C)c1nn(-c2ccc(Oc3ccnc(-c4cnn(C)c4)c3)c(C)n2)c(=O)[nH]1 [Example 46, 3-(1-methoxy-2-methylpropan-2-yl)-1-(6-methyl-5-((2-(1-methyl-1H-pyrazol-4-yl)pyridin-4-yl)oxy)pyridin-2-yl)-1H-1,2,4-triazol-5(4H)-one]
6.00 to 7.00 | 6.00 to 7.00 | Cc1nc(-n2nc(C(C)(C)C)n(C)c2=O)ccc1Oc1ccnc(-c2cnn(C)c2)c1 [Example 13, 3-(tert-butyl)-4-methyl-1-(6-methyl-5-((2-(1-methyl-1H-pyrazol-4-yl)pyridin-4-yl)oxy)pyridin-2-yl)-1H-1,2,4-triazol-5(4H)-one]
6.00 to 7.00 | 7.00 to 8.00 | Cc1nc(-n2nc(C(C)(C)C)oc2=O)ccc1Oc1ccnc(-c2cnn(C)c2)c1 [Example 49, 5-(tert-butyl)-3-(6-methyl-5-((2-(1-methyl-1H-pyrazol-4-yl)pyridin-4-yl)oxy)pyridin-2-yl)-1,3,4-oxadiazol-2(3H)-one]
< 6.00 | 6.00 to 7.00 | CCn1cc(-c2cc(Oc3ccc(-n4nc(C(C)(C)C)[nH]c4=O)nc3C)ccn2)cn1 [Example 38, 3-(tert-butyl)-1-(5-((2-(1-ethyl-1H-pyrazol-4-yl)pyridin-4-yl)oxy)-6-methylpyridin-2-yl)-1H-1,2,4-triazol-5(4H)-one]
